Data as given in BindingDB's records for doi:10.7270/Q2C53J9J (University of Pittsburgh, 2010).

Molecular target: T1, Glucose-6-phosphate 1-dehydrogenase (Leuconostoc mesenteroides, UniProt P11411)
T1 sequence (P11411 whole entry): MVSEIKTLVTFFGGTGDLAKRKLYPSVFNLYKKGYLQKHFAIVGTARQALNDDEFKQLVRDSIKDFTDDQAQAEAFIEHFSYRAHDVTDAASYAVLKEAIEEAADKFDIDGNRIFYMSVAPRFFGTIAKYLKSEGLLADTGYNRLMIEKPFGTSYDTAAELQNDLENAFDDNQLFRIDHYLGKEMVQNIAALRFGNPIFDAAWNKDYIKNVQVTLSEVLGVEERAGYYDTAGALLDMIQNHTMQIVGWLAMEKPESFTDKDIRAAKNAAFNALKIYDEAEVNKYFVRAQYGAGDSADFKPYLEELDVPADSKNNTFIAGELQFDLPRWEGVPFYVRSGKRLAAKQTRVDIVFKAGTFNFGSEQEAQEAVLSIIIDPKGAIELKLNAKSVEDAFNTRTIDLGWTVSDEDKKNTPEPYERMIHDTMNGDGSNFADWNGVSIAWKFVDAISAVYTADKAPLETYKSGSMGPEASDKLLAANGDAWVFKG
Experiment: Leuconostoc G6PDH inhibition potency, SAR follow-up, counter-screen for TbHK1 inhibitor project, biochemical, analogue series, IC50 (AID 2579)

Structure (SMILES)	IC50 [µM]
O=C(Cn1sc2ccccc2c1=O)Nc1ccc(F)cc1 [N-(4-fluorophenyl)-2-(3-oxo-1,2-benzothiazol-2-yl)acetamide]	> 25
O=C(Cn1sc2ccccc2c1=O)Nc1ccc(I)cc1 [N-(4-iodophenyl)-2-(3-oxo-1,2-benzothiazol-2-yl)acetamide]	> 25
O=C(NCc1ccccc1)n1sc2ccccc2c1=O [N-benzyl-3-oxo-1,2-benzothiazole-2-carboxamide]	> 25
CN(Cc1ccccc1)C(=O)Cn1sc2ccccc2c1=O [N-benzyl-N-methyl-2-(3-oxo-1,2-benzothiazol-2-yl)acetamide]	> 25
COC(=O)c1cc(Cl)ccc1NC(=O)c1ccc(OC)cc1 [methyl 5-chloranyl-2-[(4-methoxyphenyl)carbonylamino]benzoate]	> 25
COc1ccc(C(=O)NC(CC(=O)O)c2ccccc2)cc1 (stereo unspecified) [sodium;3-[(4-methoxybenzoyl)amino]-3-phenylpropanoate]	> 25
